Laboratory results published in US20230051268A1, “USE OF L[…] TREATING INSOMNIA” (Eisai R&D Management Co., Ltd., priority 2019, published 2023).
“And” between values parts separate entries of the source, which are not always exact repeats. Equal values may be shown once. Read-outs that look alike come from different tables or passages of the source. Marks after values point to notes of the source that are not given here.

How the values were obtained:
[1] = Single-dose pharmacokinetic study of lemborexant and metabolites M4, M9, M10 in subjects with mild or moderate hepatic impairment and healthy controls (plasma, LC-MS/MS); format: in vivo, human; conditions: for Ratio (%) (Test/Ref) of geometric mean AUC(0-inf) / Ratio (%) (Test/Ref) of geometric mean AUC(0-t) / Ratio (%) (Test/Ref) of geometric mean Cmax: lemborexant 10 mg single dose; for half-life / AUC(0-inf) / Vd/F / Cmax / AUC(0-t) / AUCu / CL/F / CLu/F: geometric mean (% CV); for Vd/F: read-out: Vz/F
Method: A multicenter, single-dose, open-label, parallel-group study in subjects with mild or moderate hepatic impairment and matched (with regard to age [±10 years], sex, and body mass index [BMI, ±20%]) healthy subjects as controls was performed.
The primary objective of the study was to assess the effect of mild and moderate hepatic impairment on the PK of lemborexant after a single-dose administration.
Secondary objectives of the study were: to evaluate the effects of hepatic impairment on the PK of lemborexant metabolites M4, M9, and M10; to evaluate the relationship between the PK parameters of lemborexant and its metabolites and the Child-Pugh classification score, serum albumin, total bilirubin, and PT; and to assess safety and tolerability of lemborexant following a single-dose administration in subjects with mild or moderate hepatic impairment and healthy control subjects.
(§1) On Day 1, the subjects were administered a single oral 10 mg dose of lemborexant with approximately 240 mL of water in the morning after an overnight fast. No food was allowed for at least 4 hours postdose. Water was allowed as desired except for 1 hour before and after drug administration.
(§2) The blood samples for PK assessments were collected at prespecified intervals up to 312 hours postdose administration. In addition, the blood samples for plasma protein binding assessments of lemborexant were collected from each subject at 2 time points; approximately 1 hour and 24 hours postdose. The subjects were discharged on Day 14 of the study. The end of the study was the date of the last study visit for the last subject.
(§3) Blood samples (4 mL each) for PK assessments of lemborexant and its metabolites (M4, M9, and M10) were collected at predose (0 hour), 0.5, 1, 1.5, 2, 3, 4, 6, 8, 12, 24, 48, 72, 96, 120, 144, 168, 216, 264, and 312 hours postdose. In addition, blood samples (12 mL per time point) for protein binding of lemborexant and its metabolites (M4, M9, and M10) were collected at 1 and 24 hours postdose matching the PK sample collection at those time points.
(§4) Total mean plasma concentrations of lemborexant and lemborexant metabolites (M4, M9, and M10) were measured by validated liquid chromatography with tandem mass spectrometry (LC-MS/MS). Unbound lemborexant concentrations of lemborexant, M4, M9, and M10 were also measured using a similar validated LC-MS/MS method following equilibrium dialysis.

[2] = Safety and tolerability assessment (TEAEs, ECGs, vital signs, laboratory tests) after single 10 mg dose; format: in vivo, human
Method: as §1
Safety was assessed by monitoring and documenting treat-emergent adverse events (TEAEs), ECGs, vital signs, weight, physical examinations, and clinical laboratory tests (urinalysis, hematology, and blood chemistry).

[3] = Plasma protein binding (unbound fraction) by equilibrium dialysis and LC-MS/MS, samples 1 and 24 hours postdose; format: in vitro ADME; conditions: human, oral, 10 mg, lemborexant 10 mg single oral dose, geometric mean (% CV)
Method: as §2, §3, §4

[4] = human, plasma, po, 10 mg, lemborexant 10 mg single oral dose, normal hepatic function (n = 8)
[5] = lemborexant 10 mg single oral dose, mild hepatic impairment (n = 7)
[6] = lemborexant 10 mg single oral dose, moderate hepatic impairment (n = 6)
[7] = lemborexant 10 mg single oral dose, normal hepatic function (n = 8)
[8] = moderate hepatic impairment, 10 mg

Cc1ncc(OC[C@@]2(c3cccc(F)c3)C[C@H]2C(=O)Nc2ccc(F)cn2)c(C)n1 [lemborexant, (1R,2S)-2-(((2,4-dimethylpyrimidin-5-yl)oxy)methyl)-2-(3-fluorophenyl)-N-(5-fluoropyridin-2-yl)cyclopropanecarboxamide]
Ratio (%) (Test/Ref) of geometric mean AUC(0-inf) ([1]; Mild: Normal): 125.03%
Ratio (%) (Test/Ref) of geometric mean AUC(0-t) ([1]; Mild: Normal): 131.91%
Ratio (%) (Test/Ref) of geometric mean Cmax ([1]; Mild: Normal): 157.86%
Ratio (%) (Test/Ref) of geometric mean AUC(0-inf) ([1]; Moderate: Normal): 153.56%
Ratio (%) (Test/Ref) of geometric mean AUC(0-t) ([1]; Moderate: Normal): 149.52%
Ratio (%) (Test/Ref) of geometric mean Cmax ([1]; Moderate: Normal): 122.20%
Tmax ([1]; human, plasma, oral, 10 mg, normal, mild and moderate cohorts, 10 mg tablet, read-out: median tmax across cohorts): 1 to 1.25 h
half-life ([1]; human, plasma, po, 10 mg, lemborexant 10 mg single oral dose, mild hepatic impairment (lemborexant n = 7)): 73.7 h
AUC(0-inf) ([1]; human, plasma, po, 10 mg, lemborexant 10 mg single oral dose, mild hepatic impairment (lemborexant n = 7), read-out: AUC(0-inf)): 567 ng·h/mL
Vd/F ([1]; human, plasma, po, 10 mg, lemborexant 10 mg single oral dose, mild hepatic impairment (n = 7)): 1880 L
Cmax ([1]; human, plasma, po, 10 mg, lemborexant 10 mg single oral dose, mild hepatic impairment (n = 8)): 62.9 ng/mL
AUC(0-t) ([1]; human, plasma, po, 10 mg, lemborexant 10 mg single oral dose, mild hepatic impairment (n = 8), read-out: AUC(0-t)): 574 ng·h/mL
Tmax ([1]; human, plasma, po, 10 mg, lemborexant 10 mg single oral dose, mild hepatic impairment (n = 8), median (range), read-out: tmax): 1 h
half-life ([1]; human, plasma, po, 10 mg, lemborexant 10 mg single oral dose, moderate hepatic impairment (lemborexant n = 6)): 105 h
AUC(0-inf) ([1]; human, plasma, po, 10 mg, lemborexant 10 mg single oral dose, moderate hepatic impairment (lemborexant n = 6), read-out: AUC(0-inf)): 696 ng·h/mL
Vd/F ([1]; human, plasma, po, 10 mg, lemborexant 10 mg single oral dose, moderate hepatic impairment (n = 6)): 2170 L
Cmax ([1]; human, plasma, po, 10 mg, lemborexant 10 mg single oral dose, moderate hepatic impairment (n = 8)): 48.7 ng/mL
AUC(0-t) ([1]; human, plasma, po, 10 mg, lemborexant 10 mg single oral dose, moderate hepatic impairment (n = 8), read-out: AUC(0-t)): 651 ng·h/mL
Tmax ([1]; human, plasma, po, 10 mg, lemborexant 10 mg single oral dose, moderate hepatic impairment (n = 8), median (range), read-out: tmax): 1 h
Cmax [1, 4]: 39.8 ng/mL
half-life [1, 4]: 67 h
AUC(0-inf) ([1]; human, plasma, po, 10 mg, lemborexant 10 mg single oral dose, normal hepatic function (n = 8), read-out: AUC(0-inf)): 453 ng·h/mL
AUC(0-t) ([1]; human, plasma, po, 10 mg, lemborexant 10 mg single oral dose, normal hepatic function (n = 8), read-out: AUC(0-t)): 435 ng·h/mL
Vd/F [1, 4]: 2130 L
Tmax ([1]; human, plasma, po, 10 mg, lemborexant 10 mg single oral dose, normal hepatic function (n = 8), median (range), read-out: tmax): 1.25 h
AUC(0-inf) ([1]; lemborexant 10 mg single oral dose, mild hepatic impairment (lemborexant n = 7)): 567 ng·h/mL
AUCu [1, 5]: 34.9 (52.6)^b h * ng/mL
CL/F [1, 5]: 17.6 L/h and 17.6 (52.0)^b L/h
CLu/F [1, 5]: 287 (52.6)^b L/h
AUC(0-t) ([1]; lemborexant 10 mg single oral dose, mild hepatic impairment (n = 8)): 574 ng·h/mL
AUC(0-inf) ([1]; lemborexant 10 mg single oral dose, moderate hepatic impairment (lemborexant n = 6)): 696 ng·h/mL
AUCu [1, 6]: 45.1 (42.6)^c h * ng/mL
CL/F [1, 6]: 14.4 L/h and 14.4 (34.6)^c L/h
CLu/F [1, 6]: 222 (42.6)^c L/h
AUC(0-t) ([1]; lemborexant 10 mg single oral dose, moderate hepatic impairment (n = 8)): 651 ng·h/mL
AUCu [1, 7]: 27.1 (36.8) h * ng/mL
CL/F [1, 7]: 22.1 L/h and 22.1 (33.9) L/h
decrease of total body clearance compared with healthy subjects ([1]; mild hepatic impairment, 10 mg): 20%
increase of AUC(0-inf) compared to healthy subjects ([1]; mild hepatic impairment, 10 mg): 25%
increase of Cmax compared to healthy subjects ([1]; mild hepatic impairment, 10 mg): 58%
exposure (geometric mean Cmax, AUC) compared with healthy control subjects ([1]; mild or moderate hepatic impairment, single 10-mg tablet): higher
decrease of total body clearance compared with healthy subjects [1, 8]: 35%
increase of AUC(0-inf) compared to healthy subjects [1, 8]: 54%
increase of Cmax compared to healthy subjects [1, 8]: 22%
effects of mild and moderate hepatic impairment on PK (scatter plots, linear regression) ([1]; vs Child-Pugh score, serum albumin, total bilirubin, MELD score, PT): small and similar
subjects who experienced a TEAE ([2]; Class A (mild hepatic impairment)): 7 (87.5%) subjects (%)
subjects who experienced a TEAE ([2]; Class B (moderate hepatic impairment)): 6 (75.0%) subjects (%)
subjects who experienced a TEAE ([2]; Healthy Controls): 7 (87.5%) subjects (%)
subjects who experienced a TEAE ([2]; all 24 subjects): 20 (83.3%) subjects (%)
TEAEs potentially related to cataplexy ([2]; all cohorts): no TEAEs potentially related to cataplexy
TEAEs that led to subject discontinuation ([2]; all cohorts): none
severity of TEAEs ([2]; all cohorts): mild in severity
SAEs reported ([2]; all cohorts, single 10 mg dose): No SAEs were reported
fraction unbound ([3]; mild hepatic impairment (n = 8)): 0.063
fraction unbound ([3]; moderate hepatic impairment (n = 8)): 0.065
fraction unbound ([3]; normal hepatic function (n = 8)): 0.0597
